Experimental data published in patent US20250129033A1, “METAP2 INHIBITORS AND USES THEREOF” (Yissum Research Development Company of the Hebrew …, priority 2022, published 2025).
“Also recorded” adds a separate entry of the source.

What was measured:
[1] = system: A375 xenograft; assay: A375 xenograft in mice; type: in vivo, Foxn1 nu mice; details: for inhibition in tumor growth: 15 mg/kg and 30 mg/kg I.P. q.o.d
Method: Animal studies were approved by the Institutional Animal Care and Use Committee of the Faculty of Medicine of the Hebrew University and followed the guidelines for use of laboratory animals. 6-8-week-old male Foxn1 nu mice were S.C. injected with 5×10^6 A375 and MDA-MB-231 cells/mouse. Mice were I.P treated with 30 mg/kg and 15 mg/kg AD-3281 every other day and with 15 mg/kg, 7.5 mg/kg AD-3281 every other day in mice injected with A375 and MDA-MB-231 respectively. Tumor growth was measured with a digital caliper. At the end of the experiments after 18 or 15 days, mice were sacrificed, and tumors were surgically removed, weighed, volume was measured and histology stating was performed. AD-3281 was dissolved in 10:10:80 […]:ethanol:saline.
Animal studies were approved by the Institutional Animal Care and Use Committee of the Faculty of Medicine of the Hebrew University and followed the guidelines for use of laboratory animals. 6-8-week-old male Foxn1 nu mice were S.C. injected with 5×10^6 A375 or MDA-MB-231 cells/mouse. Mice were I.P treated with 30 mg/kg and 15 mg/kg AD-3281 q.o.d and with 15 mg/kg, 7.5 mg/kg AD-3281 (dissolved in 10:10:80 Cremophor EL: Ethanol: Saline) q.o.d in mice injected with A375 and MDA-MB-231 respectively. Tumor growth was measured with a digital caliper. At the end of the experiments after 18 or 15 days, mice were sacrificed, and tumors were surgically removed, weighed, volume was measured and histology stating was performed. Tumor tissues were resected at the end point and analyzed by immunohistology using standard protocol for paraffin fixed sections using anti-Ki-67 (Abcam, catalog number ab15580), anti-CD31 (Abcam, catalog number ab28364), anti-MetAp-2 (Ab134124, Abcam, Cambridge, UK) (Figure S.

[2] = ERG study in mice; type: in vivo; details: Low dose 12 μg per eye and High dose 48 μg per eye
[3] = system: Choroidal Neovascularization (CNV); assay: Laser-induced CNV in mice; type: in vivo, C57Bl/6J mice; details: 12 μg per eye, intravitreal, 7 days
Text: Laser-induced CNV was generated by a previously described technique with some modifications. C57Bl/6J mice (6-8 weeks) were anesthetized by intraperitoneal injections of a mixture of 85% ketamine and 15% xylazine. A mixture of 0.5% tropicamide and 0.5% phenylephrine hydrochloride was applied to both eyes to dilate the pupils. Lesions were induced by a diode pumped solid state laser (0.1 s; spot size, 100 μm; power 120 mW) around the optic nerve through a slit lamp delivery system using a Nidek while a hand-held cover slide was used as a contact lens. Only lesions in which a subretinal bubble or focal serous detachment of the retina developed were used for the experiments. For this purpose, 4 burns were performed per eye while leaving a space around the optic disc. Intravitreal injections of the treatments were performed using a PLI-100 Pico-Injector following the laser procedure. After 7 days mice were euthanized and their eyes were removed and fixed in 4% paraformaldehyde for 60 min. The cornea and lens were removed, and the entire retina was carefully dissected from the eyecup Choroid.
Blood vessels were labeled using a 1:200 dilution of isolectin IB4 conjugated with Alexa Fluor 488 or lectin-FITC. The eyecup was flat-mounted in an aqua-mount with the sclera facing down and the choroid facing up. […] The CNV area (presented in μm2) in choroidal flat mount was evaluated using ImageJ software […]

[4] = system: HUVECs; assay: Endothelial tube formation assay; type: cell-based, human; details: 12 h
Method: To evaluate the angiogenic effect of AD-3281, an endothelial tube formation assay was performed. HUVECs were kept in serum-free Dulbecco's modified Eagle's medium media, collected, seeded in 0.1% gelatin coated 96-well plate and monitored for 12 h using a microscope. Images were taken from 6 separated wells and analyzed using Incucyte® Live-Cell Analysis Systems.

[5] = system: A375 3D multicellular spheroids; assay: A375 3D spheroid viability (WST1); type: cell-based, human; details: 50 μM free inhibitor, 96 h
Method: 3D Petri Dish 35-well array (Microtissues Inc., RI, USA) was used to create 2% agarose hydrogel micro-wells. Each well contained 5,000 cells of A375 cells. 30 minutes after seeding, 1 ml of medium was added and templates were incubated at 37° C. for 24 hours. […] The absorbance was measured at 450 nm using a plate reader (Wallac 1420 VICTOR plate reader, Perkin-Elmer Life Sciences, USA).

COC1C(OC(=O)CC23CC4CC(CC(C4)C2)C3)CCC2(CO2)C1C1(C)OC1CC=C(C)C (stereo not drawn) [AD-3281, Fumagillol-1-adamantylacetate]
inhibition in tumor growth ([1]; after 8 days, vs control): ~70% | inhibition in tumor growth ([1]; day 18): 99% | cellular proliferation in tumors (Ki-67) ([1]; immunofluorescent staining of extracted tumors): less cellular proliferation than untreated tumors | mean weight of extracted tumors ([1]; treated groups, day 18 (untreated 1 g)): ~0.1 g | damage to vision (ERG) [2]: no damage to vision | effect on mouse laser induced CNV [3]: 46% | HUVEC tube formation ([4]; 50 μM): narrower tubes compared with untreated control but without preventing network formation | HUVEC tube formation ([4]; 100 μM): impaired tubes; also recorded: prevent tube formation | effect of free inhibitor on spheroids viability [5]: did not show a significant reduction; also recorded: slight reduction of spheroids viability
